Assays:
[1] = effects counter to those reported for NAC; cited from earlier work
[2] = NAC treatment of subjects taking AZT: hematologic toxicity; assay type: in vivo, human; settings: HIV disease
Source text: Results have shown that acetaminophen usage, which lowers glutathione levels exacerbates AZT toxicity. Richman, et al. (1987) N. Eng. J. Med. 317: 192-97. De Rosa et al. recently have shown that treatment with NAC which increases glutathione levels decreases the toxicity. De Rosa et al., submitted to JAMA for publication.
It appears that NAC provides cysteine needed to redress the excessive sulfur loss that occurs in HIV disease and specifically to replenish intracellular glutathione. […] This decreases the AZT-mediated inhibition of erythroid development, helps to improve the overall metabolism and stability of erythrocytes and their progenitors (for example, by enabling optimal functioning of the glucose-6-phosphate dehydrogenase and other energy-supplying pathways). In addition, it improves the cell's ability to withstand the production of oxidants induced by the introduction of drugs (such as AZT) and the internal production of molecules (such as TNF and HIV-TAT) that trigger intracellular oxidant production.

[3] = cited from earlier work

CC(=O)N[C@@H](CSSC[C@H](NC(C)=O)C(=O)O)C(=O)O [oxidized form of NAC, di-n-acetylcysteine]
bioactive dose relative to NAC (fold less than NAC) [1]: 10-100 fold

CC(=O)N[C@@H](CS)C(=O)O [NAC, N-acetylcysteine]
effect of NAC treatment on AZT's hematologic toxicity [2]: decreases AZT's hematologic toxicity | half-cell potential for the NAC thiol/disulfide pair [3]: about +63 mV

— patent publication US6566401B2, “N-acetylcysteine compositions and methods for the treatment and prevention of drug toxicity” (The Board of Trustees of the Leland Stanford Junior …, priority 2001, dated 2003)
